This is an account of results in PMC7962978, “PSMA-D4 Radioligand for Targeted Therapy of Prostate Cancer: Synthesis, Characteristics and Preliminary Assessment of Biological Properties” (International Journal of Molecular Sciences, 2021).

Where two headings read alike, the source gives them in different places.

Series [1] has as its system PC-3 PIP (PSMA positive) tumor-bearing mice. The arrangement: method as in PMID 28102507. To be noted: PC-3 PIP tumor, 2 h p.i.v., 1 nmol, BALB/c Nude mice; cited from earlier work.
The target in series [2] is T1, PSMA antigen (Homo sapiens, UniProt Q04609).
T1 construct: PSMA antigen expressed on LNCaP cell membranes; endogenous in cells; host or cells: LNCaP cell membranes (PC3 membranes as PSMA-negative control)
T1 sequence (Q04609 whole entry): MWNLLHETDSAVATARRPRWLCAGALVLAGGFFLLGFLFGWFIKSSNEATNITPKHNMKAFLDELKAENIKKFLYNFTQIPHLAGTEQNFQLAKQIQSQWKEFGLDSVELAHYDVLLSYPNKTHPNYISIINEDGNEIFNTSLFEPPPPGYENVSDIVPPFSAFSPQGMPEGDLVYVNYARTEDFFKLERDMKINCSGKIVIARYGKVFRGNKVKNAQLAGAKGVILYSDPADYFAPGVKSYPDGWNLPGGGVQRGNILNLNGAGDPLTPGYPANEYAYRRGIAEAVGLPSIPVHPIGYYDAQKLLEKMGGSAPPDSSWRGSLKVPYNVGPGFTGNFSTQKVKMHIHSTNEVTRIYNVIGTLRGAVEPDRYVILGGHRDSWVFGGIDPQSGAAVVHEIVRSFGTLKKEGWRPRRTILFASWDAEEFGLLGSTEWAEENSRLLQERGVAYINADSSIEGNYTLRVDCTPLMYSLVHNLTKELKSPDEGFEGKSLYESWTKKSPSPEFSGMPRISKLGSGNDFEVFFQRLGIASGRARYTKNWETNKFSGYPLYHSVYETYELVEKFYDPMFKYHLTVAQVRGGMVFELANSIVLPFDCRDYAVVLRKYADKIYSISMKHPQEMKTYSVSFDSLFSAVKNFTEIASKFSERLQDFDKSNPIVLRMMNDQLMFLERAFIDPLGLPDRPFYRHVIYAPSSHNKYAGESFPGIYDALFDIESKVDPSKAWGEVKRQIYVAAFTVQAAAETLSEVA
In words: Saturation radioligand binding assay on LNCaP (PSMA positive) and PC3 (PSMA negative) cell membranes. To be noted: for Kd: LNCaP cell membranes, 2 h, 37 °C; for Specific Binding: total binding on LNCaP minus non-specific binding on PC3 membranes. The procedure:
The equilibrium constant (KD) was determined by a saturation binding experiment performed in PSMA positive LNCaP and PSMA negative PC3 cell membranes isolated according to the procedure developed by Fichna et al.. The 50 mcL of LNCaP and PC3 cell membranes were seeded on special MultiScreen™ 96 well filter plates (Merck, Warsaw, Poland) and incubated for 2 h with increasing concentration of [^177Lu]Lu-PSMA-D4, [^90Y]Y-PSMA-D4, and […] (0.016–194 nM) at 37 °C. After incubation, the unbound radiocomplexes were filtered under vacuum, and the membranes were washed twice using PBS. The filters containing membranes with the attached radiotracer were extruded into tubes using MultiScreen Multile Punch (Merck). The number of associated inhibitors was determined by measuring the radioactivity of squeezed filters using Wallac Wizard 1470 γ counter. The KD and Bmax were calculated by nonlinear regression using the GraphPad Prism statistic program.

The test system of another series is LNCaP tumor-bearing mice. To be noted: 1 h p.i.v., cited from earlier work.
Series [3] can be described thus: Lipophilicity determination (logD), shake-flask method. The series is classed as physicochemical. To be noted: n-octanol / PBS pH 7.4, shake-flask. The procedure:
The partition coefficient logD of the radioligands was determined by the shake-flask method. The solution of 10 to 50 MBq of radiolabeled PSMA ligands (D-4, 617, 11, I&T) in 1.0 mL of phosphate-buffered saline (PBS, pH 7.4) was added to 1.0 mL of presaturated n-octanol solution (n = 3). Vials were shaken vigorously for 10 min. To achieve quantitative phase separation, the vials were centrifuged at 1600 rpm for 5 min. The radioactivity concentration in a defined volume of both the aqueous and the organic phase in six replicates each was measured in a γ-counter (Wizard 1470, Wallac, Turku, Finland). The partition coefficient was calculated as the logarithm of the ratio between counts per minute (cpm) measured in the n-octanol phase to the PBS phase counts.

The subject of the next series is LNCaP cells. In words: Cell uptake (total binding) and internalization in LNCaP cells. It is filed as cell-based, human. To be noted: 37 °C, 2 h. The procedure:
To determine cell uptake and internalization of [^177Lu]Lu-PSMA-D4 and [^90Y]Y-PSMA-D4, LNCaP cells (5 × 10^5 cells well^−1) were incubated in un-supplemented RPMI 1640 medium with one concentration of tested radioligands on 12-well plates in 37 °C per 2 h. After the appropriate time, the medium was removed, and cells were washed twice using phosphate buffer saline (PBS, IITD PAN, Wroclaw, Poland). The cells were treated twice with 1 mL of 50 mM glycine in 0.1 M NaCl at a pH of 2.8 and incubated for 5 min at room temperature to collect extracellularly bound compound. The internalization was determined by measuring the radioactivity of 1mL of 1 M NaOH used for cell lysis. Total binding was calculated as a sum of the membrane and internalized fractions measured using Wallac Wizard 1470 γ counter. As a control, [^177Lu]Lu-PSMA-617 and [^68Ga]Ga-PSMA-11 were used.

For series [4], the target named is T1, PSMA antigen. Briefly: Competitive binding assay on LNCaP cell membranes with [^177Lu]Lu-PSMA-617 as radioligand. To be noted: radioligand [^177Lu]Lu-PSMA-617, 2 h incubation. The procedure:
The half-maximal inhibitory concentration (IC50) of PSMA-D4 was determined in a competitive binding assay carried out on 96-well MuliScreen filter plates using LNCaP cell membranes (50 mcL) incubated with [^177Lu]Lu-PSMA-617 as a radioligand and ten different concentrations (2.4–9708 nM) of PSMA-D4. After 2 h incubation, plates were treated in the same way as in the saturation binding assay. The amount of bound radioactivity was measured in γ-counter. IC50 value was evaluated using GraphPad Prism software (Darmstadt, Germany).

The next series has as its system mCRPC patients. The arrangement: method as in PMID 32172798, PMID 31418764, PMID 32290196. To be noted: four clinical studies, approximately 150 mCRPC patients; cited from earlier work.
The target of another series is PSMA. More on the design: method as in earlier work. To be noted: ref 34 (Tönnesmann R et al.); cited from earlier work.
Where [5] appears, read: 0.2 nmol, CD-1 nu/nu mice, ref 14.
The mark [6] stands for this setting: 0.2 nmol, CD-1 nu/nu mice, ref 37.

Consider `O=C([O-])CN1CCN(CC(=O)[O-])CCN(CC(=O)NCC2CCC(C(=O)NC(Cc3ccc4ccccc4c3)C(=O)NCCCCC(NC(=O)NC(CCC(=O)O)C(=O)O)C(=O)O)CC2)CCN(CC(=O)[O-])CC1.[47Sc+3]` (centres unmarked) [[^47Sc]Sc-PSMA-617], for which, in series [1], the kidneys is 5.97 ± 0.90 %ID g^−1, the spleen is 0.81 ± 0.34 %ID g^−1 and the tumor was 46.7 ± 4.36 %ID g^−1.
Usually Kd stands for the free concentration of one partner at which half of the binding sites on the other are occupied at equilibrium, for simple one-to-one binding. A word on the logD: it is lipophilicity at a set pH, counting ionised and neutral species. Turning to `O=C([O-])CN(CCN(CC(=O)[O-])Cc1cc(CCC(=O)NCCCCCC(=O)NCCCC[C@H](NC(=O)N[C@@H](CCC(=O)O)C(=O)O)C(=O)O)ccc1[O-])Cc1cc(CCC(=O)O)ccc1[O-].[68Ga+3].[OH3+]` [[^68Ga]Ga-PSMA-11], in series [1], the kidneys is recorded as 58.8 ± 7.62 %ID g^−1, the spleen is 2.18 ± 0.38 %ID g^−1 and the tumor is on record as 40.0 ± 2.55 %ID g^−1. Besides, at PSMA antigen [2], the Kd was found to be 11.4 ± 7.1 nM and the “Specific Binding” value stood at 96.8 ± 2.7%. Also, the tumor in the series with LNCaP tumor-bearing mice (dose n.d., Nude mice) is listed as 7.28 ± 0.82 %ID g^−1. Further, the logD in series [3] was −3.46 ± 0.06. Besides, in the series on LNCaP cells, the Internalization was determined as 2.6% and the “Total Binding” value is on record as 13.1%.
The IC50 is the concentration at which inhibition is half-maximal. With `O=C(O)CCC(NC(=O)NC(CCCCNC(=O)C(Cc1c[nH]c2ccccc12)NC(=O)C1CCC(CNC(=O)CN2CCN(CC(=O)O)CCN(CC(=O)O)CCN(CC(=O)O)CC2)CC1)C(=O)O)C(=O)O` [PSMA-D4, Glu-CO-Lys-L-Trp-4-Amc-DOTA], the 50% inhibitory concentration (IC50) on PSMA antigen [4] worked out at 28.7 ± 5.2 nM.
Consider `O=C([O-])CN1CCN(CC(=O)[O-])CCN(CC(=O)NCC2CCC(C(=O)NC(Cc3ccc4ccccc4c3)C(=O)NCCCCC(NC(=O)NC(CCC(=O)O)C(=O)O)C(=O)O)CC2)CCN(CC(=O)[O-])CC1.[68Ga+3]` (centres unmarked) [[^68Ga]Ga-PSMA-617], for which, in series [1], the kidneys is listed as 3.48 ± 0.18 %ID g^−1, the spleen was 0.91 ± 0.14 %ID g^−1 and the tumor is 55.8 ± 14.2 %ID g^−1.
Compound `O=C(O)CCc1ccc(O)c(CN(CCN(CC(=O)O)Cc2cc(CCC(=O)NCCCCCC(=O)NCCCC[C@H](NC(=O)N[C@@H](CCC(=O)O)C(=O)O)C(=O)O)ccc2O)CC(=O)O)c1` [PSMA-11, reference compound] gave an IC50 at PSMA antigen [4] of 84.5 ± 26.5 nM. This compound came in with an Internalization in the series with LNCaP cells of 2.6%.
On to `O=C([O-])CN1CCN(CC(=O)[O-])CCN(CC(=O)NCC2CCC(C(=O)NC(Cc3ccc4ccccc4c3)C(=O)NCCCCC(NC(=O)NC(CCC(=O)O)C(=O)O)C(=O)O)CC2)CCN(CC(=O)[O-])CC1.[225Ac+3]` (centres unmarked) [PSMA-617 labeled with actinium-225], for which, in the series with mCRPC patients, the hematologic toxicity entry was “extremely low hematologic toxicity” and the “patients with prostate-specific antigen (PSA) response in terms of PSA decline” value is on record as approximately 90%.
Turning to `O=C([O-])CN1CCN(CC(=O)[O-])CCN(CC(=O)NCC2CCC(C(=O)NC(Cc3ccc4ccccc4c3)C(=O)NCCCCC(NC(=O)NC(CCC(=O)O)C(=O)O)C(=O)O)CC2)CCN(CC(=O)[O-])CC1.[177Lu+3]` (centres unmarked) [[^177Lu]Lu-PSMA-617], in series [1], the kidneys is 3.97 ± 0.56 %ID g^−1, the spleen was 0.21 ± 0.03 %ID g^−1 and the tumor was 45.8 ± 4.02 %ID g^−1. Also, on PSMA, the Kd was 2 ± 0.3 nM. The compound also displayed a logD in series [3] of −5.12 ± 0.07. Besides, in the series with LNCaP cells, the Internalization is given as 35.4–38.9% and the “Total Binding” value is 10.2–16.8%. Further, in the series with LNCaP cells (listed as [^177Lu]Lu-PSMA 617), the Internalization amounted to 38.9 ± 1.7% and the “Total Binding” value worked out at 12.8 ± 1.0%.
`O=C(O)CC[C@H](NC(=O)N[C@@H](CCCCNC(=O)CCCCCCC(=O)NCCCC[C@@H](NC(=O)[C@@H](Cc1ccccc1)NC(=O)[C@@H](Cc1ccc(O)c(I)c1)NC(=O)CCC(C(=O)O)N1CCN(CC(=O)O)CCN(CC(=O)O)CCN(CC(=O)O)CC1)C(=O)O)C(=O)O)C(=O)O` (some centres unmarked) [PSMA-I&T, Glu-CO-Lys[(Sub)DLys-DPhe-DTyr(3I)-DOTAGA]]: on PSMA antigen [4], the IC50 was found to be 61.1 ± 7.8 nM.
With `O=C(O)CC[C@H](NC(=O)N[C@@H](CCCCNC(=O)[C@H](Cc1ccc2ccccc2c1)NC(=O)[C@H]1CC[C@H](CNC(=O)CN2CCN(CC(=O)O)CCN(CC(=O)O)CCN(CC(=O)O)CC2)CC1)C(=O)O)C(=O)O` [PSMA-617, Glu-CO-Lys-2-naphthyl-L-Ala-cyclohexane-DOTA], the IC50 with PSMA is 2.7 ± 0.1 nM.
`O=C([O-])CC[C@H](NC(=O)N[C@@H](CCCCNC(=O)CCCCCCC(=O)NCCCC[C@@H](NC(=O)[C@@H](Cc1ccccc1)NC(=O)[C@@H](Cc1ccc(O)c(I)c1)NC(=O)CC[C@H](C(=O)[O-])N1CCN(CC(=O)[O-])CCN(CC(=O)[O-])CCN(CC(=O)[O-])CC1)C(=O)[O-])C(=O)[O-])C(=O)[O-].[177Lu+3].[H+].[H+].[H+].[H+].[H+]` [[^177Lu]Lu-PSMA-I&T]: at PSMA antigen [2], the equilibrium dissociation constant (Kd) stood at 5.1 ± 2.6 nM and the “Specific Binding” value came to 97.1 ± 2.9%. In addition, in the series on LNCaP tumor-bearing mice (setting [5]), the kidneys is 107.24 ± 15.61 %ID g^−1, the spleen was 5.85 ± 2.26 %ID g^−1 and the tumor is 7.96 ± 1.76 %ID g^−1. In the series with LNCaP tumor-bearing mice (setting [6]), the kidneys is reported as 105.3 ± 15.8 %ID g^−1, the spleen was 7.9 ± 2.6 %ID g^−1 and the tumor is on record as 8.0 ± 1.7 %ID g^−1. Also, the logD in series [3] is on record as −4.47 ± 0.14.
In series [3], `O=C([O-])CN1CCN(CC(=O)[O-])CCN(CC(=O)NCC2CCC(C(=O)NC(Cc3ccc4ccccc4c3)C(=O)NCCCCC(NC(=O)NC(CCC(=O)O)C(=O)O)C(=O)O)CC2)CCN(CC(=O)[O-])CC1.[90Y+3]` (centres unmarked) [[^90Y]Y-PSMA-617] came in with a logD of −5.08 ± 0.13.
